What is called Ki is a measure of affinity in units of concentration, obtained from inhibition or displacement.

SMILES strings stand for the structures.

This is an account of results in article PMC7660225, “New Chemical Probe Targeting Bacterial NAD Kinase” (Molecules, 2020).

The target in one experiment is T1, recombinant LmNADK1 (Listeria monocytogenes serovar 1/2a, UniProt Q8Y8D7).
T1 construct: made in house
T1 sequence (Q8Y8D7 1-264): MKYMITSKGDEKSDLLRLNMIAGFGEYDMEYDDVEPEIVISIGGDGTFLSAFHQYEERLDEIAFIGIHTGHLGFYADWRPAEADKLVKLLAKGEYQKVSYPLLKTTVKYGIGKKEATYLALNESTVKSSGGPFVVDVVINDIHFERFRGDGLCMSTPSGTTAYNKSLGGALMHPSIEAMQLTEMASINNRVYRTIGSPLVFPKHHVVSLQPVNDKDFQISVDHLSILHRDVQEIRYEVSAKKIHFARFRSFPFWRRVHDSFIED
As to the kind of experiment: LmNADK1 inhibition, coupling assay (Ki measurements). Type of experiment: biochemical. Particulars: for Ki: competitive inhibition fit, 30 °C, pH 7.0, inhibitor 0, 10, 25 or 50 µM, 0-2 mM NAD, 0.1 µM LmNADK1; for inhibitory potency compared to inhibitor 1 (NKI1): result in words. The method, then: Another important parameter to select the chemical probe is that it retains its binding properties. The potency of ligands 2–5 as inhibitors of recombinant LmNADK1 in vitro were determined using the coupling assay described previously.
Activity was measured at 30 °C in 50 mM Bis-Tris pH 7.0, 2 mM sodium citrate, 1 mM MgCl2. Reaction mixtures contained 0–2 mM NAD, 4 mM MgATP, 5 mM Glucose 6-phosphate, 1 U/mL Glucose 6-phosphate dehydrogenase and 0.1 µM LmNADK1. Steady state rate constants (kss) were calculated by fitting the initial (first 500–1000 s) linear part of the NADP production time courses per NADK. Inhibitors were tested at 4 concentrations: 0, 10, 25 or 50 µM and Ki values were determined using the competitive inhibition equation, kss = kcat × NAD/(KM × (1 + [inhibitor]/Ki) + NAD), with GraFit software (v 7.0.3).
Figure 5 Determination of inhibition constants of compounds 1–5. Inhibitor concentrations were 0 (circles), 10 (triangles), 25 (squares) and 50 (stars) µM. Secondary plots (kss as a function of initial NAD concentration) were fitted assuming a competitive inhibition using GraFit software (v 7.0.3) and are presented here as double reciprocal plots. […] TEXT PRINTED IN THE PICTURE: NKI1: Ki (μM): 17.2 | 2: Ki (μM): 347 | 3: Ki (μM): 52.2 | 4: Ki (μM): 23.8 | 5: Ki (μM): 5.6

The target of another experiment is T2, crystallized LmNADK1 (Listeria monocytogenes serovar 1/2a, UniProt Q8Y8D7).
T2 construct: made in house
T2 sequence (Q8Y8D7 1-264): T1 sequence (Q8Y8D7 1-264)
The experiment is described as follows: X-ray crystallography of soaked LmNADK1 crystals. The class given is binding. Conditions: soaking procedure; structures refined to 2.2-2.4 Å. The method, then: A prerequisite to use a chemical probe is that it retains its binding affinity for its target. The binding properties of the four synthesized derivatives 2–5 were analyzed by X-ray crystallography. We checked the binding properties of these new di-adenosine derivatives by determining their complex with crystallized LmNADK1. The soaking procedure described previously for inhibitor 1 [18] was used to obtain crystals of the target in complex with compounds 2-5. The X-ray structures were solved by molecular replacement using PDB6RGC [18] as a starting template and refined to 2.2–2.4 Å resolution.

Another experiment deals with S. aureus. Also noted: method as in PMID 32017533. Particulars: including antibiotic-resistant strains; cited from earlier work.

On to `NCCNc1ncnc2c1ncn2C1OC(COCC#Cc2nc3c(N)ncnc3n2C2OC(CO)C(O)C2O)C(O)C1O` (centres unmarked) [Compound 2, 8-[3-(N^6-2-Aminoethyl-5’-O-adenosinyl)propargyl]adenosine], for which, at recombinant LmNADK1, the Ki came to 347 µM and the “inhibitory potency compared to inhibitor 1 (NKI1)” value is “sharp decrease in inhibitory potency”. For the same compound, at crystallized LmNADK1, the “complex formation / binding mode with crystallized LmNADK1” value (shortened to “complex formation / binding mode”) is “led to a complex with the target”.

Consider `Nc1ncnc2c1ncn2C1OC(COCC#Cc2nc3c(N)ncnc3n2C2OC(CO)C(O)C2O)C(O)C1O` (centres unmarked) [NKI1], for which the “activity in mice infected with S. aureus” value with S. aureus was “active in mice infected with S. aureus”. Also, the Ki at recombinant LmNADK1 amounted to 17.2 µM.

Take `NCCCC(=O)NCC1OC(n2c(C#CCOCC3OC(n4cnc5c(N)ncnc54)C(O)C3O)nc3c(N)ncnc32)C(O)C1O` (centres unmarked) [Compound 4, 5’-O-[3-(5’-(4-Aminobutylamido)-5’-deoxy-adenosin-8-yl)prop-2-yn-1-yl]-adenosine]: at recombinant LmNADK1, the Ki amounted to 23.8 µM and the “inhibitory potency compared to inhibitor 1 (NKI1)” value is “slightly reduced inhibitory potency”. For the same compound, the “complex formation / binding mode” value at crystallized LmNADK1 is “very similar to that of NKI1”.

For `NCCCCNc1ncnc2c1ncn2C1OC(COCC#Cc2nc3c(N)ncnc3n2C2OC(CO)C(O)C2O)C(O)C1O` (centres unmarked) [Compound 3, 8-[3-(N^6-4-Aminobutyl-5’-O-adenosinyl)propargyl]adenosine], at recombinant LmNADK1, the Ki is 52.2 µM and the “inhibitory potency compared to inhibitor 1 (NKI1)” value is “sharp decrease in inhibitory potency”. In addition, on crystallized LmNADK1, the “complex formation / binding mode” value is “failed to yield complex”.

`NCCCN(CC#Cc1nc2c(N)ncnc2n1C1OC(CO)C(O)C1O)CC1OC(n2cnc3c(N)ncnc32)C(O)C1O` (centres unmarked) [Compound 5, 5’-[N-3-Aminopropyl-N-(3-(adenosin-8-yl)propargyl)amino]-5’-deoxyadenosine]: on recombinant LmNADK1, the Ki is 5.6 µM and the “inhibitory potency compared to inhibitor 1 (NKI1)” value is “slightly increased”. Also, on crystallized LmNADK1, the “complex formation / binding mode” value is listed as “very similar to that of NKI1”.
